Results: patent US9828630B2, “Methods of enhancing genetic diagnosis” (BioLamina AB, priority 2011, dated 2017)

Columns and labels:
human ES and iPS cells = assay: Long-term culture with single cell dissociation passaging; assay type: cell-based; conditions: for proliferation rate / increase in number of cells compared with Matrigel or classical methods: FIG. 8; for passages proliferated: O3 medium
Method: Human ES cells were cultured on r-laminin-521-coated laboratory dishes in chemically defined O3 medium (described in Rodin et al., Nature Biotechnol., vol. 28, pp. 611-615 (2010)) at 37° C. in 5% CO2. Cells were routinely passed once every 10-12 days by exposure to Trypsin-EDTA solution (GIBCO Invitrogen) for 5 minutes at 37° C. They were then gently pipetted to break into single-cell suspension and defined trypsin inhibitor (GIBCO Invitrogen) was added. The cell suspension was centrifuged […], the supernatant discarded, the cell pellet resuspended in prewarmed O3 medium, and cells were then passed through a 40 μm sieve. After that cells were plated on new r-laminin-521-coated dishes at a concentration 30 Kcells/cm^2 (1:25-1:30 split ratio). Cells were fed once a day with fresh medium prewarmed in an incubator for 1 hour, except for the first day after a passage, when only a few drops of fresh medium were added. Control cells of the same line were cultured on Matrigel (BD Biosciences) in O3 medium as described in Rodin et al., Nature Biotechnol., vol. 28, pp. 611-615 (2010). Control cells were passaged in pieces.
Human ES cells of HS181 and HS401 were cultured on LN-521-coated culture dishes in O3 medium (described in Rodin et al., Nature Biotechnol., vol. 28, pp. 611-615 (2010) with pH was adjusted to 7.35), mTeSR1 (STEMCELL Technologies) and chemically defined and xeno-free TeSR2 (STEMCELL Technologies) at 37° C., 5% CO2. Initially, cells of the lines were transferred onto a LN-521 coating from a human feeder cell layer by careful scratching using a sterile knife with subsequent trypsinization, or the cells were trypsinized into single cell suspension from a LN-511 coating. The cells were provided once a day with fresh medium pre-warmed in an incubator for one hour, except for the first day after plating, when only a few drops of fresh medium were added. Cells were routinely passed once in 10-12 days by exposure to Trypsin/EDTA (GIBCO Invitrogen Corporation, Paisley, Scotland) for 5 minutes at 37° C., 5% CO2. They were then gently pipetted to break into single-cell suspension and a Defined Trypsin Inhibitor (GIBCO Invitrogen) was added. The cell suspension was centrifuged at 25 rcf for 4 minutes, the supernatant was discarded, the cell pellet was resuspended in prewarmed O3 medium, and the cells were then passed through a 40 μm sieve. Subsequently, the cells were plated on new LN-521-coated dishes at a concentration of 30,000 cells/cm^2 in 1:25-1:30 split ratios. Control cells of the same line were cultured on Matrigel (STEMCELL Technologies) and LN-511 in O3 medium as described previously.^9
For defined and xeno-free cultures, TeSR2 (STEMCELL Technologies) medium and defined free from any animal derived component TrypLE™ Select (GIBCO Invitrogen Corporation, Paisley, Scotland) enzyme were used. The cells were passed every 10-14 days by exposure to TrypLE™ Select for 4-5 minutes at 37° C., 5% CO2. Then, the enzyme was carefully aspirated and prewarmed TeSR2 medium was added. After that, the cells were gently pipetted to break into single-cell suspension, centrifuged, the supernatant was discarded, and the cell pellet was resuspended in prewarmed TeSR2. The cells were then passed through a 40 μm sieve and plated on a fresh LN-521 coated dish.

OCT4 = assay: FACS analysis for OCT4; assay type: cell-based, human; conditions: after several single cell suspension passages, O3 medium, FIG. 9 and 10
Method: OCT4 expression was analyzed as described in Ludwig, T. E. et al. Derivation of human embryonic stem cells in defined conditions. Nat. Biotechnol. 24, 185-187 (2006). Cells were run on FACSCalibur Flow Cytometer (Becton Dickinson). Data were analyzed with CellQuest software (Becton Dickinson).

hES cell lines = assay: Karyotyping; assay type: cell-based, human; conditions: HS181 12 and H1 10 passages in O3; H1 7 passages in TeSR2
Method: Karyotyping of the cell lines was carried out using standard Q-banding techniques. Samples of cells were treated with colcemid KaryoMAX (0.1 μg/ml; Gibco Invitrogen Corporation) for up to 4 hours, followed by dissociation with Trypsin/EDTA solution (Gibco Invitrogen Corporation). The cells were pelleted via centrifugation and re-suspended in pre-warmed 0.0375M KCl hypotonic solution and incubated for 10 minutes. Following centrifugation, the cells were resuspended in fixative (3:1 methanol:acetic acid). Metaphase spreads were prepared on glass microscope slides and G-banded by brief exposure to trypsin and stained with 4:1 Gurr's/Leishmann's stain (Sigma-Aldrich Co.). A minimum of 10 metaphase spreads were analyzed and additional 20 were counted.

SCID mouse = assay: Teratoma formation in SCID mice; assay type: in vivo; conditions: HS181 13, H1 12 passages in O3; H1 7 passages in TeSR2
Method: Teratoma formation experiments were performed by implantation of approximately 10^6 cells beneath the testicular capsule of a young (7-week-old) severe combined immunodeficiency (SCID) mouse. Three animals per each cell line were used. Teratoma growth was observed by weekly palpation, and the mice were sacrificed eight weeks after the implantation. The teratomas were fixed, and sections were stained with hematoxylin and eosin (HE) or with hematoxylin, eosin and PAS (HE-PAS). […] All animal experiments were performed at the infection-free animal facility of the Karolinska University Hospital in accordance with ethical committee approval.

hES cells = assay: In vivo imaging and migration assay; assay type: cell-based, human
Method: 24-well plates were coated by extracellular matrix proteins and blocked by O3 medium containing bovine serum albumin. The ES cells were plated at cell density of 30,000-40,000 cells/cm^2 onto extracellular matrix-coated plates and left to adhere for half an hour in a cell incubator. After that, the plate was transferred into high content imaging system Operetta (PerkinElmer) equipped with environmental control unit, which allowed to keep 37° C., 5% CO2. For two movies that were made, the brightfield images were taken once in 15 minutes during 24 hours after plating using Harmony software (PerkinElmer), exported, and analyzed using ImageJ software (NIH, the US). For migration assay the images were taken every seven minutes during 18 hours after plating. Images acquired between the fifth and seventh hours after plating were analyzed using MTrackJ plug-in (University Medical Center, Rotterdam, The Netherlands). 100 attached cells on each coating were traced and mean distances from the current to the previous point of the track were calculated. Error bars show standard error of the mean s.e.m. (n=100).

human ES cells = assay: Cell survival assay, 24 hours (1 day) after plating from single cell suspension; assay type: cell-based; conditions: 10 μM Y-27632, 40,000 cells per 1 cm^2, 24 hours

LN-521: protein formed by joining laminin α5, β2 and γ1 chains; human recombinant, produced in HEK293 cells
passages cultured (human ES and iPS cells; ChiPSW iPS cells, mTeSR1): 3 passages | robust proliferation with stable and high rate (human ES and iPS cells; Example 1, O3 medium, 1:25 to 1:30, 3 months): at least 9 passages | proliferation rate / increase in number of cells compared with Matrigel or classical methods (human ES and iPS cells): much faster rate | proliferation rate / increase in number of cells compared with Matrigel or classical methods (human ES and iPS cells; listed as laminin-521): higher rate | passages proliferated (human ES and iPS cells; H1 cells, 6 months): ≥ 15 passages | passages proliferated (human ES and iPS cells; HS181 cells, 9 months): at least 24 passages | passages proliferated (human ES and iPS cells; HS401 cells, 2 months): ≥ 5 passages | passages to undergo the same number of cell doublings as 20 passages (100 days / 3 months) by conventional methods on Matrigel (human ES and iPS cells; single cell suspension passaging, 1 month): 3 passages | percentage of Oct4 positive (pluripotent) cells compared with Matrigel (OCT4): much higher percentage | karyotype (hES cell lines): normal | tissues in teratomas formed in SCID mice (SCID mouse): all three germ lineages | cell migration compared with Matrigel (imaging) (hES cells; 24 hours imaging): much faster | motility of hES cells compared with other coatings (hES cells; between fifth and seventh hours after plating, FIG. 14): higher | survival of Y-27632 treated cells compared with Matrigel (human ES cells): survived better
